# Experimental data taken from paper PMC10461224, “Development of an Affinity-Based Probe to Profile Endogenous Human Adenosine A3 Receptor Expression” (Journal of Medicinal Chemistry, 2023).
# Assays:
# hA3AR [1] = target: T1, hA3AR (Homo sapiens, UniProt P0DMS8); assay: SDS-PAGE labeling on live CHO cells; type: cell-based; details: 50 nM, 1 h, 37 °C; signal reduced by PSB-11
# T1 construct: expressed in transfected cells; host or cells: CHO cells (CHOhA3AR), gift of Prof; K.N. Klotz, University of Würzburg; used as membrane fractions or live cells
# T1 sequence (P0DMS8 1-318): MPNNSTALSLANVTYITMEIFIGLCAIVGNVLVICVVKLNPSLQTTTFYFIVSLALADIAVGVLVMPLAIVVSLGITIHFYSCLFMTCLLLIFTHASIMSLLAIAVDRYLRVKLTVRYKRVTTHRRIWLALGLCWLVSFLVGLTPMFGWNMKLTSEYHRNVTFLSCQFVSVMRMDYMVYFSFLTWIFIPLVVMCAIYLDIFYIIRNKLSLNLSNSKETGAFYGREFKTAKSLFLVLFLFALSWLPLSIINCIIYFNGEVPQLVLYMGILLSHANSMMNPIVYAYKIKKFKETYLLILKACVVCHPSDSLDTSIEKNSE
# Description: CHOhA3AR and CHO-K1 cells were cultured as mentioned above. Cells were grown to ∼90% confluency in 10 cm φ plates. 10 plates were used per condition per experiment. The medium was removed, and the competing ligand (PSB-11, unless noted otherwise) in medium (final concentration: 1 μM) was added. Cells were incubated for 1 h (37 °C, 5% CO2). The medium was removed, and the affinity-based probe (final concentration: 50 nM in medium) was added. The cells were incubated for 1 h (37 °C, 5% CO2) and washed with PBS to get rid of all the non-bound probes. Subsequently, the membranes were prepared and collected using the procedure as described above. Membrane aliquots were diluted to a concentration of 1 μg/μL, and 20 μL was taken per sample. PNGase (0.5 μL, 5 U) or MilliQ was added, and the samples were incubated for 1 h at rt. Next, the click mix was freshly prepared by adding together 5 parts 100 mM CuSO4 in MilliQ, 3 parts 1 M NaAsc in MilliQ, 1 part 100 mM THPTA in MilliQ, and 1 part 100 μM Cy5-N3 in DMSO. […] In-gel fluorescence was measured on a Bio-Rad Universal Hood III using Cy3 (605/50 filter) or Cy5 (695/55 filter) settings. […]
# Gel images were analyzed using Image Lab software version 6.0.1 (Bio-Rad). Quantification was done in the following manner: the area under the curve (AUC) of the bands was selected using the ‘Lane Profile’ tab and the adjusted volumes were taken. […]
# hA3AR [2] = target: T1, hA3AR; assay: Confocal microscopy labeling on CHO cells, click to TAMRA-N3; type: cell-based; details: 50 nM, 60 min, versus vehicle, PSB-11 pre-incubation and CHO-K1
# Description: CHOhA3AR and CHO-K1 cells were cultured in a 96-well plate. Upon reaching a confluency of about 90%, the medium was replaced by medium containing PSB-11 (final concentration: 1 μM) or 1% DMSO (control) and the cells were pre-incubated for 30 min (37 °C and 5% CO2). The medium was then replaced with medium containing 9 (final concentration: 50 nM) or 1% DMSO (vehicle), and the cells were incubated for 60 min (37 °C and 5% CO2). The cells were washed with PBS to remove unbound probe and afterward fixed using a 4% PFA in 10% formalin solution (15 min, rt). The remaining fixative was removed by washing with PBS and subsequently with 20 mM glycine in PBS. The cells were permeabilized by incubation in 0.1% saponin in PBS (10 min, rt). Remaining saponin was removed by a PBS wash, and the cells were stored at 4 °C until further usage. At the day of imaging, PBS was removed and the cells were incubated for 1 h in freshly prepared click mix (100 μL 100 mM CuSO4 in MilliQ, 100 μL 1 M NaAsc in MilliQ, 100 μL […] in MilliQ, 9.66 mL HEPES pH 7.4, and 40 μL 1 mM TAMRA-N3 in DMSO, added in the respective order). […]
# CellProfiler (version 2.2.0) was used to create a binary image of the DAPI channel and to propagate the cytoplasmic area based on the DAPI binary. An overlay of the binary cytoplasm/TAMRA channel was generated to quantify per segmented pixel the TAMRA intensity. […]
compound,measurement,setting,value
"C#CCOc1ccn2c(c1)nc1c2c(=O)n(CCC)c(=O)n1CCCNC(=O)c1ccc(S(=O)(=O)F)cc1 [compound 9, 4-((3-(2,4-Dioxo-8-(prop-2-yn-1-yloxy)-3-propyl-3,4-dihydropyrido[2,1-f]purin-1(2H)-yl)propyl)carbamoyl)benzenesulfonyl fluoride]",labeling of hA3AR on live CHO cells (SDS-PAGE),hA3AR [1],binds and labels the hA3AR on live cells
same,integrated TAMRA fluorescence intensity,hA3AR [2],significant increase in intensity
